Key:
[1] = biological target: ROCK I (AA 6-553) (Homo sapiens, UniProt Q13464); experiment: ROCK inhibition assay, coupled enzyme system ("Enzyme"); format: biochemical; conditions: enzyme-linked assay; average Ki if more than one determined
Description: Reactions were carried out in a solution containing 100 mM HEPES (pH 7.5), 10 mM MgCl2, 25 mM NaCl, 2 mM DTT and 1.5% DMSO.
If more than one value of Ki has been determined, the average Ki is indicated. If no value is indicated, then the Ki was not determined.

[2] = biological target: PKA (Homo sapiens, UniProt P17612); experiment: PKA inhibition assay, coupled enzyme; format: biochemical; conditions: average Ki if more than one determined
Description: Compounds were screened for their ability to inhibit PKA using a standard coupled enzyme assay (Fox et al., Protein Sci, 1998, 7, 2249). Assays were carried out in a mixture of 100 mM HEPES (pH 7.5), 10 mM MgCl2, 25 mM NaCl, 1 mM DTT and 3% DMSO. Final substrate concentrations in the assay were 50 μM ATP (Sigma Chemicals) and 80 μM peptide (Kemptide, American Peptide, Sunnyvale, Calif.). Assays were carried out at 30° C. and 18 nM PKA. Final concentrations of the components of the coupled enzyme system were 2.5 mM phosphoenolpyruvate, 300 μM NADH, 30 μg/ml pyruvate kinase and 10 μg/ml lactate dehydrogenase.
An assay stock buffer solution was prepared containing all of the reagents listed above, with the exception of ATP, and the test compound of the present invention. […] The plate was preincubated for 10 minutes at 30° C. and the reaction initiated by addition of 5 μl of ATP (final concentration 50 μM). Initial reaction rates were determined with a Molecular Devices SpectraMax Plus plate reader over a 15 minute time course. IC50 and Ki data were calculated from non-linear regression analysis using the Prism software package (GraphPad Prism version 3.0a for Macintosh, GraphPad Software, San Diego Calif., USA).

Sequence of ROCK I (AA 6-553) (Q13464 6-553, species assumed): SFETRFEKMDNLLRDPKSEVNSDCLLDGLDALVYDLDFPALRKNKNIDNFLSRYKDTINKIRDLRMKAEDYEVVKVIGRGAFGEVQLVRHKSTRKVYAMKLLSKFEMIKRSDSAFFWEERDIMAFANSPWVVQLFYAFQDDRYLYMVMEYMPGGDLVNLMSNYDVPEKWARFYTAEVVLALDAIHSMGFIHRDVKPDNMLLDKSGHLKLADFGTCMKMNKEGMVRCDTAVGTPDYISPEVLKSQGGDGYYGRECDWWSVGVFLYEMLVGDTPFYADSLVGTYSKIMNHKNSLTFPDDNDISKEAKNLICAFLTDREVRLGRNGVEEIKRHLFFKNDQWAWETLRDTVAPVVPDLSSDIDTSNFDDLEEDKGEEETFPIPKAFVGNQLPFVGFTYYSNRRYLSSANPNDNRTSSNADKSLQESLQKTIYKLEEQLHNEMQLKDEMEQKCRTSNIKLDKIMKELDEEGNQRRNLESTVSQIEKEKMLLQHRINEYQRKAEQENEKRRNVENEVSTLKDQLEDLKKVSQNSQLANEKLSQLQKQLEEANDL

Structure (SMILES)	Ki [1] [nM]	Ki [2] [nM]
O=C(Cc1cccc(OCCCN2CCNCC2)c1)Nc1nc(-c2c[nH]c3nccc(F)c23)cs1 [II-36]	< 500	500 to 5000
O=C(Cc1ccc(F)cc1F)Nc1nc(-c2c[nH]c3ncccc23)cs1 [I-6]	< 500	< 500
CCN(CC)S(=O)(=O)c1cccc(CC(=O)Nc2nnc(-c3c[nH]c4ncccc34)s2)c1 [II-64]	500 to 5000	500 to 5000
O=C(Cc1ccccc1)Nc1nc(-c2c[nH]c3nccc(Cl)c23)cs1 [II-91]	< 500	< 500
O=C(NCc1ccc(F)cc1F)c1ccc(-c2c[nH]c3ncccc23)s1 [II-28]	< 500	< 500
O=C(Cc1cccc(OCCCn2ccnc2)c1)Nc1nc(-c2c[nH]c3nccc(F)c23)cs1 [II-38]	< 500	500 to 5000
CN(C)CCNS(=O)(=O)c1cccc(CC(=O)Nc2nc(-c3c[nH]c4ncccc34)cs2)c1 [II-97]	< 500	< 500
NC(=O)c1cccc(CC(=O)Nc2nc(-c3c[nH]c4ncccc34)cs2)c1 [II-41]	< 500	< 500
O=C(Cc1cccc(OCCCN2CCNCC2)c1)N(c1nc(-c2c[nH]c3ncccc23)cs1)C1CC1 [II-83]	< 500	500 to 5000
CN(C)CCN(C)S(=O)(=O)c1cccc(CC(=O)Nc2nc(-c3c[nH]c4ncccc34)cs2)c1 [II-90]	< 500	< 500
O=C(Cc1cccc(S(=O)(=O)N2CCOCC2)c1)Nc1nc(-c2c[nH]c3ncccc23)cs1 [II-26]	< 500	500 to 5000
O=C(Cc1cc2c(cc1Cl)OCO2)Nc1nc(-c2c[nH]c3nccc(F)c23)cs1 [II-20]	< 500	< 500
O=C(NCc1cccc(S(=O)(=O)N2CCOCC2)c1)c1ccc(-c2c[nH]c3ncccc23)s1 [II-65]	< 500	< 500
O=C(Cc1ccc(F)cc1F)Nc1csc(-c2c[nH]c3ncccc23)n1 [II-56]	< 500	< 500
O=C(Cc1ccccc1)Nc1nc(-c2c[nH]c3ncc(Cl)cc23)cs1 [II-102]	< 500	< 500
COc1cccc(CC(=O)N(c2nc(-c3c[nH]c4ncccc34)cs2)C2CC2)c1 [II-70]	< 500	< 500
O=C(NCCc1ccccc1)c1ccc(-c2c[nH]c3ncccc23)s1 [II-31]	< 500	< 500
CS(=O)(=O)Nc1cccc(CC(=O)Nc2nc(-c3c[nH]c4nccc(Cl)c34)cs2)c1 [II-94]	< 500	< 500
COc1cccc(CC(=O)Nc2nc(-c3c[nH]c4nccc(Cl)c34)cs2)c1 [II-92]	< 500	< 500
O=C(Cc1cccc(S(=O)(=O)N2CCOCC2)c1)Nc1nnc(-c2c[nH]c3ncccc23)s1 [II-58]	500 to 5000	500 to 5000
COc1cccc(CC(=O)Nc2cc(-c3c[nH]c4ncccc34)cs2)c1 [II-23]	< 500	< 500
O=C(Cc1cccc(S(=O)(=O)N2CCOCC2)c1)Nc1nc(-c2c[nH]c3ncc(Br)cc23)cs1 [II-107]	< 500	500 to 5000
O=C(Cc1cccc(OCCN2CCNCC2)c1)N(c1nc(-c2c[nH]c3ncccc23)cs1)C1CC1 [II-85]	< 500	< 500
CS(=O)(=O)Nc1ccc(F)c(CC(=O)Nc2nc(-c3c[nH]c4ncccc34)cs2)c1 [II-82]	< 500	< 500
CS(=O)(=O)c1ccc(CC(=O)N(c2nc(-c3c[nH]c4ncccc34)cs2)C2CC2)cc1 [II-73]	< 500	500 to 5000
O=C(Cc1ccc(F)cc1F)Nc1nc(-c2c[nH]c3nccc(F)c23)cs1 [II-13]	< 500	< 500
CC(C)N1CCN(S(=O)(=O)c2cccc(CC(=O)Nc3nc(-c4c[nH]c5ncccc45)cs3)c2)CC1 [II-89]	< 500	500 to 5000
O=C(Cc1cc2c(cc1Cl)OCO2)Nc1nnc(-c2c[nH]c3ncccc23)s1 [II-10]	< 500	500 to 5000
O=C(Nc1csc(-c2c[nH]c3ncccc23)n1)c1ccccc1 [II-81]	< 500	500 to 5000

Reference: patent US7514448B2, “Azaindoles useful as inhibitors of rock and other protein kinases” (Vertex Pharmaceuticals Incorporated, priority 2004, dated 2009)
